One data set deals with T1, human TLR7 (Homo sapiens, UniProt Q9NYK1).
T1 construct: expressed in transfected cells; host or cells: HEK293
T1 sequence (Q9NYK1 27-1049): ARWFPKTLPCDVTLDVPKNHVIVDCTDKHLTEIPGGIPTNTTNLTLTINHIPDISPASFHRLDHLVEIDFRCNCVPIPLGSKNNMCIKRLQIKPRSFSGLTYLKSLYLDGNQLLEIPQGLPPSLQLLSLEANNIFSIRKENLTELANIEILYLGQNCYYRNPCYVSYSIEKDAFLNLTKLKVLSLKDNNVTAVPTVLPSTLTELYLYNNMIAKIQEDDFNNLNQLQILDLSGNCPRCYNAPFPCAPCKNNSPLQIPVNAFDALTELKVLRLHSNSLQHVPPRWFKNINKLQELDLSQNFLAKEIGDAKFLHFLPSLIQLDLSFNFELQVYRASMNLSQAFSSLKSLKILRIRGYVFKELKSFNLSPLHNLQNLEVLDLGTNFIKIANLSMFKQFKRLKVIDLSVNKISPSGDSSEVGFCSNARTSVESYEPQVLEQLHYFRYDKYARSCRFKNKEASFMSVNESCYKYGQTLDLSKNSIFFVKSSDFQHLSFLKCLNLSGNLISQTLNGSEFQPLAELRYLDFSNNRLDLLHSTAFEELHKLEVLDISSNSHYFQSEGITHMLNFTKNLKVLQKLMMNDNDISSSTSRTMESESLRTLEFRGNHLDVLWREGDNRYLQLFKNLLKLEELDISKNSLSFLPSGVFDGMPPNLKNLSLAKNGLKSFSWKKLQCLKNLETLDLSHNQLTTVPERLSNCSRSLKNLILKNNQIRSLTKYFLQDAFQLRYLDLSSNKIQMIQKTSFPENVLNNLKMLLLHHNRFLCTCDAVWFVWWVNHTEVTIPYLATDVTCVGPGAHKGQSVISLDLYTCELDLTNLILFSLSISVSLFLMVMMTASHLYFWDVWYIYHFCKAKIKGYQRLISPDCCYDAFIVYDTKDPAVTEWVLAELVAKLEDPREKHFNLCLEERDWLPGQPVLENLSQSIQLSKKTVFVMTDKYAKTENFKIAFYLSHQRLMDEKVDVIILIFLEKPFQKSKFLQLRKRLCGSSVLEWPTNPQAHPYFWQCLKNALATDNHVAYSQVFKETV
Nature of the data set: HEK293 human TLR7 NF-κB luciferase reporter assay. Format: cell-based. To be noted: HEK293 cells. As for the experimental part:
The activity of this compound is assessed in an assay using HEK293 cells which are stably transfected with human TLR7 and an NF-κB-driven luciferase reporter vector (pNifty-Luciferase). As a control assay, normal HEK293 transfected with pNifty-Luc are used. Cells are cultured in DMEM supplemented with 2 mM L-glutamine, 10% heart inactivated FBS, 1% penicillin and streptomycin, 2 μg/ml puromycin and 5 μg/ml of blasticidin. Bright-Glo™ Luciferase assay buffer and substrate are supplied by Promega. Cells are plated at 25,000 cells/well in 384-well plates in a final volume of 50 μl of media. Cells are allowed to adhere to the plates after overnight (18 hours) culture at 37° C. and 5% CO2. Serially-diluted experimental and positive control compounds are then dispensed to each well and incubated for 7 hours at 37° C. and 5% CO2. Cells stimulated with DMSO alone serve as negative controls. After the incubation, 30 μl of the pre-mix assay buffer and substrate buffer are added to each well according to manufacturer's instructions. The luminescence signal is read on a CLIPR machine with an integration time of 20 seconds per plate.
Background: A reporter such as luciferase makes a cellular process visible.

A further data set in a line: Water solubility. Format: physicochemical. Conditions: read-out: water-soluble at.
Data set [1] can be described thus: Muscle levels 24 hours after intramuscular injection. Conditions: for detection in muscle 24 hours after intramuscular injection / concentration at 24 h: 100 μg; for concentration at 24 h: Balb/C, mouse, muscle, intramuscular, 100 μg i.m. Format: in vivo, Balb/C mice.
Data set [2] is described as follows: Model of in vivo desorption from Al—H. It counts as in vitro ADME. To be noted: 37° C.
The format of data set [3] is physicochemical. To be noted: SDS-PAGE of supernatants.
Data set [4] can be described thus: Systemic serum exposure after intramuscular injection. Format: in vivo, Balb/C mice. Conditions: Balb/C, mouse; for AUC: im, 100 μg i.m.; for Cmax: intramuscular, 100 μg.
For the next data set, the system named is serum cytokines. Nature of the data set: Serum cytokines after administration. Conditions: in vivo.
Data set [5] has as its system serogroup B meningococcus. Format: in vivo, CD-1 mice. Conditions: 5CVMB at days 0 & 14 with (b) the agonist compound.
Setting [6] is: SIF (simulated interstitial fluid).
[7] abbreviates: 100 ug, compound alone, 24 hours.
Setting [8] is: +Al—H (adsorbed), read-out: Levels of compound in muscle 24 hours after injection.
Where [9] appears, read: 100 ug, TLR2 agonists, compound alone.
Setting [10] is: TLR2 agonists, +Al—H (adsorbed).

Like-named read-outs stand apart in the source and are kept apart here. Some results are limits rather than exact numbers.

Usually EC50 stands for the concentration at which the effect is half-maximal. Read a high EC50 as weaker potency. Take `CCOCc1nc2c(N)nc3ccccc3c2n1CCOCCP(=O)(O)O` [Compound 7]: at human TLR7, it took 66 µM to reach a half-maximal effect (EC50). That is a double-digit micromolar value.

Take `CCCCCNc1nc(N)nc(C)c1Cc1ccc(CP(=O)(O)O)cc1OC` [Compound 8]: a half-maximal response at human TLR7 (EC50) required 7.3 µM.

In the case of `CCCCCNc1nc(N)nc(C)c1Cc1ccc(CP(=O)(O)O)cc1` [Compound 69], on human TLR7, the EC50 is 47.4 µM.

On to `Cc1cc(OCCCC(F)(F)P(=O)(O)O)ccc1CCc1cnc2c(N)nc3cc(CCC(=O)O)ccc3c2c1` [Compound 3], for which, in “Water solubility”, the solubility was > 1000 µg/mL. Moreover, the entries for the “detection in muscle 24 hours after intramuscular injection” value (“detection in muscle 24 hours” for short) in data set [1] (injected with Al—H) and in data set [1] (without Al—H (free form)) were “readily detected” and “undetectable”, respectively. Also, the “proportion desorbed after 5 hours” value in data set [2] (His buff) is 5%; in data set [2] (Plasma/His buff), 49%; in data set [2] (setting [6]), 100%. Besides, the “adsorption of MenB antigens to Al—H after pre-adsorption of compound” value in data set [3] was “completely adsorbed”.

The term AUC denotes concentration integrated over time. The low end stands for low exposure, the high end for high exposure. The term Cmax denotes the highest concentration seen after dosing. Consider `CCCCCNc1nc(N)nc(C)c1Cc1ccc(OCCOCCC(F)(F)P(=O)(O)O)cc1OC` [Compound 71, (3-(2-(4-((2-amino-4-methyl-6-(pentylamino)pyrimidin-5-yl)methyl)-3-methoxyphenoxy)ethoxy)-1,1-difluoropropyl)phosphonic acid], for which, in the data set “Water solubility”, the solubility was > 1000 µg/mL. At human TLR7, a half-maximal effect (EC50) was put at 2.7 µM. Further, the AUC stood at 2.09 µM·h in data set [4] (setting [7]) and 4.22 µM·h in data set [4] (+Al—H (adsorbed), 24 hours). Also, the Cmax in data set [4] (+Al—H (adsorbed)) came to 1810 nM; in data set [4] (compound alone), 2600 nM. The “effect of adsorption to Al—H on systemic cytokines” value (“effect of adsorption to Al—H” below) in the data set on serum cytokines is recorded as “generally reduced or unaffected”. The entries for the “detection in muscle 24 hours” value in data set [1] (injected with Al—H) and in data set [1] (without Al—H (free form)) were “readily detected” and “undetectable”, respectively. Also, the concentration at 24 h in data set [1] (setting [8]) worked out at 924 nM; in data set [1] (compound alone), 0 nM. In data set [5], the “SBA titers at day 28” value is reported as 65.

Take `CCCCCCCCCCCCOC[C@H](CSC[C@H](N)C(=O)NCCOCCOCCOCCP(=O)(O)O)OCCCCCCCCCCCC` [Compound 74, ((14R,18R)-14-amino-18-(dodecyloxy)-13-oxo-3,6,9,20-tetraoxa-16-thia-12-azadotriacontyl)phosphonic acid]: the AUC in data set [4] (setting [9]) was found to be 37.4 µM·h; in data set [4] (setting [10]), 3.39 µM·h. Besides, the Cmax in data set [4] (+Al—H (adsorbed)) came to 317 nM; in data set [4] (compound alone), 1940 nM. Also, the concentration at 24 h stood at 49000 nM in data set [1] (setting [8]) and 27800 nM in data set [1] (compound alone).

For the molecule `CCCCCCCCCCCCOC[C@H](CSC[C@H](N)C(=O)NCCOCCOCCOCCP(=O)(O)O)NC(=O)CCCCCCCCCCC` [Compound 80, ((14R,18R)-14-amino-18-dodecanamido-13-oxo-3,6,9,20-tetraoxa-16-thia-12-azadotriacontyl)phosphonic acid], the AUC came to 20.7 µM·h in data set [4] (setting [9]) and 7.26 µM·h in data set [4] (setting [10]). Further, the highest concentration (Cmax) was 180 nM in data set [4] (+Al—H (adsorbed)) and 2820 nM in data set [4] (compound alone). For the same molecule, the concentration at 24 h in data set [1] (setting [8]) stood at 47200 nM; in data set [1] (compound alone) it was 5070 nM.

In the case of `CCOCc1nc2c(N)nc3ccccc3c2n1CCOCCOCCOCCP(=O)(O)O` [Compound 68, (2-(2-(2-(2-(4-amino-2-(ethoxymethyl)-1H-imidazo[4,5-c]quinolin-1-yl)ethoxy)ethoxy)ethoxy)ethyl)phosphonic acid], the solubility in “Water solubility” was > 1000 µg/mL. The molecule further had a 50% effective concentration (EC50) on human TLR7 of 28 µM. Also, the AUC in data set [4] (setting [7]) was found to be 1.39 µM·h; in data set [4] (+Al—H (adsorbed), 24 hours) it was 2.76 µM·h. In addition, the peak concentration (Cmax) in data set [4] (+Al—H (adsorbed)) was 1720 nM; in data set [4] (compound alone), 2120 nM. The “effect of adsorption to Al—H” value in the data set with serum cytokines is on record as “generally reduced or unaffected”. Besides, the results for the “detection in muscle 24 hours” value in data set [1] (injected with Al—H) and in data set [1] (without Al—H (free form)) were “readily detected” and “undetectable”, respectively. The concentration at 24 h is 502 nM in data set [1] (setting [8]) and 0 nM in data set [1] (compound alone).

With `COCCOc1nc(N)c2nc(O)n(Cc3ccc(CP(=O)(O)O)cc3)c2n1` [Compound 6, (4-((6-amino-2-(2-methoxyethoxy)-8-oxo-7H-purin-9(8H)-yl)methyl)benzyl)phosphonic acid], the solubility in “Water solubility” was > 1000 µg/mL. In addition, at human TLR7, the concentration giving a half-maximal response (EC50) was 0.41 µM. Further, the AUC in data set [4] (setting [7]) was 7.18 µM·h; in data set [4] (+Al—H (adsorbed), 24 hours) it was 13.4 µM·h. For the same molecule, the peak concentration (Cmax) in data set [4] (+Al—H (adsorbed)) turned out to be 5520 nM; in data set [4] (compound alone), 6120 nM. Further, in data set [1] (without Al—H (free form)), the “detection in muscle 24 hours” value was “undetectable”. The concentration at 24 h in data set [1] (setting [8]) came out at 2770 nM; in data set [1] (compound alone) it was 0 nM. For the same molecule, the “detection in inguinal lymph nodes or in liver” value in data set [1] (after 24 hours) is on record as “could not be detected”.

Consider `Cc1cc(OCCOCCOCCC(F)(F)P(=O)(O)O)ccc1CCc1cnc2c(N)nc3cc(CCC(=O)O)ccc3c2c1` [Compound 4], for which the solubility in “Water solubility” was > 1000 µg/mL. The results for the “detection in muscle 24 hours” value in data set [1] (injected with Al—H) and in data set [1] (without Al—H (free form)) were “readily detected” and “undetectable”, respectively. Further, the “proportion desorbed after 5 hours” value in data set [2] (His buff) is 4%; in data set [2] (Plasma/His buff) it was 81%; in data set [2] (setting [6]), 100%. In addition, in data set [3], the “adsorption of MenB antigens to Al—H after pre-adsorption of compound” value is reported as “completely adsorbed”.

Consider `COCCOc1cc2c(nc(O)n2Cc2ccc(CP(=O)(O)O)cc2)c(N)n1` [Compound 67, (4-((4-amino-6-(2-methoxyethoxy)-2-oxo-2,3-dihydro-1H-imidazo[4,5-c]pyridin-1-yl)methyl)benzyl)phosphonic acid], for which the solubility in the data set “Water solubility” is > 1000 µg/mL. On human TLR7, this molecule returned an EC50 of 6.5 µM. The AUC was 3.57 µM·h in data set [4] (setting [7]) and 8.11 µM·h in data set [4] (+Al—H (adsorbed), 24 hours). Moreover, the highest concentration (Cmax) came out at 4510 nM in data set [4] (+Al—H (adsorbed)) and 4060 nM in data set [4] (compound alone). Further, in the data set with serum cytokines, the “effect of adsorption to Al—H” value is listed as “generally reduced or unaffected”. The results for the “detection in muscle 24 hours” value in data set [1] (injected with Al—H) and in data set [1] (without Al—H (free form)) were “readily detected” and “undetectable”, respectively. The concentration at 24 h in data set [1] (setting [8]) was 2880 nM; in data set [1] (compound alone), 0 nM. Also, the “SBA titers at day 28” value in data set [5] was found to be 64.

In the case of `CCCCCCCCCCCC(=O)OC[C@H](CSC[C@H](N)C(=O)NCCOCCOCCOCCP(=O)(O)O)OC(=O)CCCCCCCCCCC` [Compound 72, ((14R,18R)-14-amino-18-(dodecanoyloxy)-13,21-dioxo-3,6,9,20-tetraoxa-16-thia-12-azadotriacontyl)phosphonic acid], the concentration at 24 h is 14500 nM in data set [1] (setting [8]) and 0 nM in data set [1] (compound alone).

For `CCCCCCCCCCCC(=O)OC[C@H](CSC[C@H](N)C(=O)NC1(COCCCP(=O)(O)O)CC1)OC(=O)CCCCCCCCCCC` [Compound 22, (3-((1-((R)-2-amino-3-(((R)-2,3-bis(dodecanoyloxy)propyl)thio)propanamido)cyclopropyl)methoxy)propyl)phosphonic acid], the concentration at 24 h in data set [1] (setting [8]) worked out at 25300 nM; in data set [1] (compound alone), 0 nM.

These data come from patent US20120177681A1, “Formulation of immunopotentiators” (priority 2010, published 2012).
